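In this assay, cells in 96-well plates receive the compound at five concentrations for 48 hours. Endpoints are linearly interpolated between the surrounding concentrations. Abbreviation: GI50, concentration required for 50% inhibition of growth. At the TGI there is no net growth.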
Experiments:
Test in all cases: NCI tumour cell line growth inhibition, 48 h
786-0 renal = tested on: 786-0 renal
A498 renal = tested on: A498 renal
A549 NSCLC = tested on: A549 NSCLC
ACHN renal = tested on: ACHN renal
CAKI-1 renal = tested on: CAKI-1 renal
CCRF-CEM leukemia = tested on: CCRF-CEM leukemia
COLO 205 colon = tested on: COLO 205 colon
DU-145 prostate = tested on: DU-145 prostate
EKVX NSCLC = tested on: EKVX NSCLC
HCC-2998 colon = tested on: HCC-2998 colon
HCT-116 colon = tested on: HCT-116 colon
HCT-15 colon = tested on: HCT-15 colon
HL-60(TB) leukemia = tested on: HL-60(TB) leukemia
HOP-62 NSCLC = tested on: HOP-62 NSCLC
HOP-92 NSCLC = tested on: HOP-92 NSCLC
HS 578T breast = tested on: HS 578T breast
HT29 colon = tested on: HT29 colon
IGROV1 ovarian = tested on: IGROV1 ovarian
K-562 leukemia = tested on: K-562 leukemia
KM12 colon = tested on: KM12 colon
LOX IMVI melanoma = tested on: LOX IMVI melanoma
M14 melanoma = tested on: M14 melanoma
MALME-3M melanoma = tested on: MALME-3M melanoma
MCF7 breast = tested on: MCF7 breast
MDA-MB-435 = tested on: MDA-MB-435
MOLT-4 leukemia = tested on: MOLT-4 leukemia
NCI-H226 lung = tested on: NCI-H226 lung
NCI-H23 lung = tested on: NCI-H23 lung
NCI-H460 lung = tested on: NCI-H460 lung
NCI-H522 lung = tested on: NCI-H522 lung
NCI/ADR-RES ovarian = tested on: NCI/ADR-RES ovarian
OVCAR-3 ovarian = tested on: OVCAR-3 ovarian
OVCAR-4 ovarian = tested on: OVCAR-4 ovarian
OVCAR-5 ovarian = tested on: OVCAR-5 ovarian
PC-3 prostate = tested on: PC-3 prostate
RPMI-8226 leukemia = tested on: RPMI-8226 leukemia
RXF 393 renal = tested on: RXF 393 renal
SF-268 CNS = tested on: SF-268 CNS
SF-295 CNS = tested on: SF-295 CNS
SF-539 CNS = tested on: SF-539 CNS
SK-MEL-2 melanoma = tested on: SK-MEL-2 melanoma
SK-MEL-28 melanoma = tested on: SK-MEL-28 melanoma
SK-MEL-5 melanoma = tested on: SK-MEL-5 melanoma
SK-OV-3 ovarian = tested on: SK-OV-3 ovarian
SN12C renal = tested on: SN12C renal
SNB-19 CNS = tested on: SNB-19 CNS
SR leukemia = tested on: SR leukemia
SW-620 colon = tested on: SW-620 colon
T-47D breast = tested on: T-47D breast
TK-10 renal = tested on: TK-10 renal
U251 CNS = tested on: U251 CNS
UACC-257 melanoma = tested on: UACC-257 melanoma
UACC-62 melanoma = tested on: UACC-62 melanoma
UO-31 renal = tested on: UO-31 renal
BT-549 breast = tested on: BT-549 breast
MDA-MB-231 breast = tested on: MDA-MB-231 breast
OVCAR-8 ovarian = tested on: OVCAR-8 ovarian

Structure (SMILES): C=C[C@@]1(C)CC2CC[C@]3(C)C(C)=CC(=O)CC3[C@]2(C)CC1O (some centres undefined)
- TGI (786-0 renal): > 100 µM
- TGI (A498 renal): > 100 µM
- TGI (A549 NSCLC): > 100 µM
- TGI (ACHN renal): > 100 µM
- TGI (CAKI-1 renal): > 100 µM
- TGI (CCRF-CEM leukemia): > 100 µM
- TGI (COLO 205 colon): > 100 µM
- TGI (DU-145 prostate): > 100 µM
- TGI (EKVX NSCLC): > 100 µM
- TGI (HCC-2998 colon): > 100 µM
- TGI (HCT-116 colon): > 100 µM
- TGI (HCT-15 colon): > 100 µM
- TGI (HL-60(TB) leukemia): 82000 nM
- TGI (HOP-62 NSCLC): > 100000 nM
- TGI (HOP-92 NSCLC): > 100 µM
- TGI (HS 578T breast): > 100 µM
- TGI (HT29 colon): > 100 µM
- TGI (IGROV1 ovarian): > 100 µM
- TGI (K-562 leukemia): > 100 µM
- TGI (KM12 colon): > 100 µM
- TGI (LOX IMVI melanoma): > 100 µM
- TGI (M14 melanoma): > 100 µM
- TGI (MALME-3M melanoma): > 100 µM
- TGI (MCF7 breast): > 100 µM
- TGI (MDA-MB-435): > 100 µM
- TGI (MOLT-4 leukemia): > 100 µM
- TGI (NCI-H226 lung): > 100 µM
- TGI (NCI-H23 lung): > 100 µM
- TGI (NCI-H460 lung): > 100 µM
- TGI (NCI-H522 lung): 74.4 µM
- TGI (NCI/ADR-RES ovarian): > 100 µM
- TGI (OVCAR-3 ovarian): > 100 µM
- TGI (OVCAR-4 ovarian): > 100 µM
- TGI (OVCAR-5 ovarian): > 100000 nM
- TGI (PC-3 prostate): > 100000 nM
- TGI (RPMI-8226 leukemia): > 100 µM
- TGI (RXF 393 renal): > 100000 nM
- TGI (SF-268 CNS): > 100 µM
- TGI (SF-295 CNS): > 100000 nM
- TGI (SF-539 CNS): > 100000 nM
- TGI (SK-MEL-2 melanoma): > 100 µM
- TGI (SK-MEL-28 melanoma): > 100 µM
- TGI (SK-MEL-5 melanoma): > 100 µM
- TGI (SK-OV-3 ovarian): > 100 µM
- TGI (SN12C renal): > 100 µM
- TGI (SNB-19 CNS): > 100 µM
- TGI (SR leukemia): > 100 µM
- TGI (SW-620 colon): > 100 µM
- TGI (T-47D breast): > 100 µM
- TGI (TK-10 renal): > 100 µM
- TGI (U251 CNS): > 100 µM
- TGI (UACC-257 melanoma): > 100 µM
- TGI (UACC-62 melanoma): > 100 µM
- TGI (UO-31 renal): > 100 µM

Structure (SMILES): N=C(N)c1ccc(-c2ccc(-c3cc(Cl)cc(Cl)c3)s2)cc1
- GI50 (HL-60(TB) leukemia): 1070 nM
- TGI (HL-60(TB) leukemia): 2800 nM
- GI50 (SR leukemia): 284 nM
- TGI (SR leukemia): > 100 µM

Structure (SMILES): CC(=O)O[C@H]1C(=O)[C@@]2(C)[C@H]([C@H](OC(=O)c3ccccc3)[C@]3(O)C[C@H](OC(=O)[C@H](O)[C@@H](NC(=O)c4ccccc4)C4CCCCC4)C(C)=C1C3(C)C)[C@]1(OC(C)=O)CO[C@@H]1C[C@@H]2O
- TGI (786-0 renal): > 100 µM
- TGI (A549 NSCLC): > 100 µM
- TGI (ACHN renal): > 72.8 µM
- TGI (BT-549 breast): > 100 µM
- TGI (CAKI-1 renal): > 100 µM
- TGI (CCRF-CEM leukemia): > 62.7 µM
- TGI (COLO 205 colon): < 0.01 µM
- TGI (EKVX NSCLC): > 100 µM
- TGI (HCC-2998 colon): 16.4 µM
- TGI (HCT-116 colon): > 44.9 µM
- TGI (HCT-15 colon): > 51.1 µM
- TGI (HL-60(TB) leukemia): < 10 nM
- TGI (HOP-62 NSCLC): 1450 nM
- TGI (HOP-92 NSCLC): 64.1 µM
- TGI (HS 578T breast): < 0.01 µM
- TGI (HT29 colon): 17.5 µM
- TGI (IGROV1 ovarian): > 61.3 µM
- TGI (K-562 leukemia): > 51.9 µM
- TGI (KM12 colon): 37.1 µM
- TGI (LOX IMVI melanoma): > 56.4 µM
- TGI (M14 melanoma): 24 µM
- TGI (MALME-3M melanoma): 95 µM
- TGI (MCF7 breast): 25.9 µM
- TGI (MDA-MB-231 breast): 28.6 µM
- TGI (MOLT-4 leukemia): > 51.6 µM
- TGI (NCI-H226 lung): > 100 µM
- TGI (NCI-H23 lung): > 100 µM
- TGI (NCI-H460 lung): 15.3 µM
- TGI (NCI-H522 lung): 0.011 µM
- TGI (NCI/ADR-RES ovarian): 11.4 µM
- TGI (OVCAR-3 ovarian): < 0.01 µM
- TGI (OVCAR-4 ovarian): 50.5 µM
- TGI (OVCAR-5 ovarian): 673 nM
- TGI (OVCAR-8 ovarian): 98.8 µM
- TGI (PC-3 prostate): 2910 nM
- TGI (RPMI-8226 leukemia): 19.2 µM
- TGI (RXF 393 renal): 13 nM
- TGI (SF-268 CNS): > 100 µM
- TGI (SF-295 CNS): 60.6 nM
- TGI (SF-539 CNS): 21.4 nM
- TGI (SK-MEL-2 melanoma): > 100 µM
- TGI (SK-MEL-28 melanoma): > 100 µM
- TGI (SK-MEL-5 melanoma): 14.9 µM
- TGI (SNB-19 CNS): > 100 µM
- TGI (SR leukemia): 25.1 µM
- TGI (SW-620 colon): > 100 µM
- TGI (T-47D breast): 93.7 µM
- TGI (TK-10 renal): 37.4 µM
- TGI (U251 CNS): > 43 µM
- TGI (UACC-62 melanoma): 52.2 µM
- TGI (UO-31 renal): 36.2 µM
